Results taken from ChEMBL document CHEMBL3351264, “Piperazinyl-oxadiazoles as selective sphingosine-1-phosphate receptor agonists” (Bioorg Med Chem Lett, 2014).
pEC50: −log10 of the molar value.

Tests used:
[1] = target: T1, Sphingosine 1-phosphate receptor 3 (Homo sapiens, UniProt Q99500); assay: Agonist activity at human S1P3 receptor expressed in human EDG3-bla U2OS cells after 18 hrs by beta-arrestin recruitment assay; format: cell-based
[2] = target: Sphingosine 1-phosphate receptor 1 (Homo sapiens, UniProt P21453); assay: Agonist activity at human S1P1 receptor expressed in human EDG1-bla U2OS cells after 18 hrs by beta-arrestin recruitment assay; format: cell-based
Sequence of Sphingosine 1-phosphate receptor 1 (P21453 whole entry): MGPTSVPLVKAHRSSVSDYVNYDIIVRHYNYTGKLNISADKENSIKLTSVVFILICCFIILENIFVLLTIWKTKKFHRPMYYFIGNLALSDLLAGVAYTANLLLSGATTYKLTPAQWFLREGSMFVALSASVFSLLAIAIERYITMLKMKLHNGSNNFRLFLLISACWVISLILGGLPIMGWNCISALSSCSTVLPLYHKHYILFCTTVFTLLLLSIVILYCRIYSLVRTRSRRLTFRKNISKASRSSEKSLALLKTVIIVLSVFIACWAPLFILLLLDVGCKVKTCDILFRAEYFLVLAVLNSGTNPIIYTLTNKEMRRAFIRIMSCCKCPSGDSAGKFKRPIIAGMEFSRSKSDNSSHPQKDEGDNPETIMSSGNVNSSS

Plasma [3] = assay: Drug level in rat plasma treated with 3 mg/kg, po; format: ADME, organism-based; parameters: dose 3 mg/kg, route oral; details: in vivo
Homo sapiens = species on record: Homo sapiens; assay: Selectivity ratio of EC50 for human S1P3 receptor to EC50 for human S1P1 receptor
Rattus norvegicus = assay: Toxicity in Lewis rat assessed as reduction in circulating lymphocyte count at 3 mg/kg, po after 4 hrs; format: organism-based; parameters: dose 3 mg/kg, route oral; details: in vivo
Plasma [4] = assay: Drug metabolism in rat plasma assessed as 2-amino-3-(5-chloro-4-(3-(4-(cyclopentanecarbonyl)piperazin-1-yl)-1,2,4-oxadiazol-5-yl)-2-fluorophenoxy)propyl dihydrogen phosphate formation at 3 mg/kg, po; format: ADME, organism-based; parameters: dose 3 mg/kg, route oral; details: in vivo
[5] = target: T1, Sphingosine 1-phosphate receptor 3; assay: Partial agonist activity at human S1P3 receptor expressed in human EDG3-bla U2OS cells after 18 hrs by beta-arrestin recruitment assay; format: cell-based

T1 sequence (Q99500 whole entry): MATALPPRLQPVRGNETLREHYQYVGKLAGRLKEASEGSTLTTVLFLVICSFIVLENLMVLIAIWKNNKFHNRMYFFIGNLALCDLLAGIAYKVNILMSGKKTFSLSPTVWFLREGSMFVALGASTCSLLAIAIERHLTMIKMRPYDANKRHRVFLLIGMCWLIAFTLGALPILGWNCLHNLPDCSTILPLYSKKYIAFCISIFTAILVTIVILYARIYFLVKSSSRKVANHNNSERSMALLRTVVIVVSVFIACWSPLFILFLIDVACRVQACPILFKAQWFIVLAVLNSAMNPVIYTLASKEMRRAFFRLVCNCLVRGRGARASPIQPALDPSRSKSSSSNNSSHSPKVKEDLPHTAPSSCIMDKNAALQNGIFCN

## CC1(C)CC(C(=O)N2CCN(c3noc(-c4cc(F)c(OCCO)cc4Cl)n3)CC2)C1
[1]
  pEC50: < 5.00
[2]
  pEC50: 6.04

## N[C@@H](CO)COc1cc(Cl)c(-c2nc(N3CCN(C(=O)C4CCC4)CC3)no2)cc1F
[1]
  pEC50: < 5.00
[2]
  pEC50: 7.77

## N[C@H](COc1cc(Cl)c(-c2nc(N3CCN(C(=O)C4CCCC4)CC3)no2)cc1F)COP(=O)(O)O
[1]
  pEC50: 6.03
Plasma [3]
  Drug metabolism: metabolite_detected
Homo sapiens
  Ratio EC50: 2000
[2]
  pEC50: 9.30

## N[C@@H](CO)COc1cc(Cl)c(-c2nc(N3CCN(C(=O)C4CCCCC4)CC3)no2)cc1F
[1]
  pEC50: < 5.00
[2]
  pEC50: 8.92

## N[C@@H](CO)COc1cc(Cl)c(-c2noc(N3CCN(C(=O)C4CCCC4)CC3)n2)cc1F
[1]
  pEC50: < 5.00
[2]
  pEC50: 7.26

## CCc1cccnc1C(=O)N1CCN(c2noc(-c3cc(F)c(OC[C@@H](N)CO)cc3Cl)n2)CC1
[1]
  pEC50: < 5.00
[2]
  pEC50: 8.28

## CCC(C)(C)C(=O)N1CCN(c2noc(-c3ccccc3OC)n2)CC1
[2]
  pEC50: 5.44

## N[C@@H](CO)COc1cc(Cl)c(-c2noc(N3CCN(C(=O)c4cccc(Cl)c4)CC3)n2)cc1F
[1]
  pEC50: < 5.00
[2]
  pEC50: 7.92

## O=C(O)C1CN(Cc2cc(Cl)c(-c3nc(N4CCN(C(=O)C5CCCC5)CC4)no3)cc2F)C1
[1]
  pEC50: < 5.00
[2]
  pEC50: 5.68

## N[C@@H](CO)COc1c(Cl)cc(-c2nc(N3CCN(C(=O)C4CCCC4)CC3)no2)cc1Cl
[1]
  pEC50: < 5.00
[2]
  pEC50: 5.80

## N[C@@H](CO)COc1c(Cl)cc(-c2nc(N3CCN(C(=O)c4cccc(Cl)c4)CC3)no2)cc1Cl
[1]
  pEC50: < 5.00
[2]
  pEC50: < 5.27

## N[C@@H](CO)COc1cc(Cl)c(-c2nc(N3CCN(C(=O)C4CCCC4)CC3)no2)cc1F
[1]
  pEC50: < 5.00
Rattus norvegicus
  Activity: Toxic
Plasma [4]
  Drug metabolism: metabolite_detected
[2]
  pEC50: 8.77

## N[C@@H](CO)COc1c(Cl)cc(-c2nc(N3CCN(C(=O)C4CCCCC4)CC3)no2)cc1Cl
[1]
  pEC50: < 5.00
[2]
  pEC50: < 5.00

## CC1(C)CC(C(=O)N2CCN(c3noc(-c4cc(F)c(OCCCO)cc4Cl)n3)CC2)C1
[1]
  pEC50: < 5.00
[2]
  pEC50: 5.96

## CC1(C)CC(C(=O)N2CCN(c3noc(-c4cc(F)c(OC[C@@H](N)CO)cc4Cl)n3)CC2)C1
[5]
  %max: 63%
[1]
  pEC50: 6.35
[2]
  pEC50: 8.51

## CC1(C)CC(C(=O)N2CCN(c3noc(-c4cc(F)c(OCCC(=O)O)cc4Cl)n3)CC2)C1
[1]
  pEC50: < 5.00
[2]
  pEC50: 5.57

## N[C@H](CO)COc1cc(Cl)c(-c2nc(N3CCN(C(=O)C4CCCC4)CC3)no2)cc1F
[1]
  pEC50: < 5.00
[2]
  pEC50: 6.38

## CC1(C)CC(C(=O)N2CCN(c3noc(-c4cc(F)c(OC[C@@H](O)CO)cc4Cl)n3)CC2)C1
[1]
  pEC50: < 5.00
[2]
  pEC50: 5.96

## N[C@@H](CO)COc1cc(Cl)c(-c2nnc(N3CCN(C(=O)C4CCCC4)CC3)s2)cc1F
[5]
  %max: 45%
[1]
  pEC50: 6.39
[2]
  pEC50: 9.30

## N[C@@H](CO)COc1cc(Cl)c(-c2nc(N3CCN(C(=O)c4cccc(Cl)c4)CC3)no2)cc1F
[1]
  pEC50: < 5.00
[2]
  pEC50: 8.39

## CC1(C)CC(C(=O)N2CCN(c3noc(-c4cc(F)c(OCC(=O)O)cc4Cl)n3)CC2)C1
[1]
  pEC50: < 5.00
[2]
  pEC50: < 5.00

## CC1(C)CC(C(=O)N2CCN(c3noc(-c4cc(F)c(OC[C@H](O)CO)cc4Cl)n3)CC2)C1
[1]
  pEC50: < 5.00
[2]
  pEC50: 5.92

## O=C(O)CCOc1cc(Cl)c(-c2nc(N3CCN(C(=O)C4CCCC4)CC3)no2)cc1F
[1]
  pEC50: < 5.00
[2]
  pEC50: 6.62

## N[C@@H](CO)COc1cc(Cl)c(-c2nc(N3CCN(C(=O)c4ccccn4)CC3)no2)cc1F
[1]
  pEC50: < 5.00
[2]
  pEC50: 7.04

## CCC(C)(C)C(=O)N1CCN(c2noc(-c3cc(F)c(OCC(N)CO)cc3Cl)n2)CC1 (configuration not stated)
[2]
  pEC50: 7.34

## CC(C)(C(=O)N1CCN(c2noc(-c3cc(F)c(OC[C@@H](N)CO)cc3Cl)n2)CC1)C(F)(F)F
[5]
  %max: 44%
[1]
  pEC50: 5.33
[2]
  pEC50: 8.01

## N[C@@H](CO)COc1cc(Cl)c(-c2noc(C3CCN(C(=O)C4CCCC4)CC3)n2)cc1F
[1]
  pEC50: < 5.00
[2]
  pEC50: 7.35

## N[C@@H](CO)COc1cc(Cl)c(-c2nc(N3CCN(C(=O)c4ccccc4)CC3)no2)cc1F
[1]
  pEC50: < 5.00
[2]
  pEC50: 8.19

## N[C@@H](CO)COc1cc(Cl)c(-c2nnc(N3CCN(C(=O)c4cccc(Cl)c4)CC3)s2)cc1F
[5]
  %max: 48%
[1]
  pEC50: 6.42
[2]
  pEC50: 8.64

## N[C@H](CO)COc1cc(Cl)c(-c2nc(N3CCN(C(=O)C4CCC4)CC3)no2)cc1F
[1]
  pEC50: < 5.00
[2]
  pEC50: 5.89

## C[C@H](O)COc1cc(Cl)c(-c2nc(N3CCN(C(=O)C4CC(C)(C)C4)CC3)no2)cc1F
[1]
  pEC50: < 5.00
[2]
  pEC50: 5.96

## N[C@H](CO)COc1cc(Cl)c(-c2nc(N3CCN(C(=O)c4cccc(Cl)c4)CC3)no2)cc1F
[1]
  pEC50: < 5.00
[2]
  pEC50: 5.62

## CC1(C)CC(C(=O)N2CCN(c3noc(-c4cc(F)c(OC[C@@H]5COC(=O)N5)cc4Cl)n3)CC2)C1
[1]
  pEC50: < 5.00
[2]
  pEC50: < 5.00
